The source of these data is patent US11230544B1, “Substituted 1,3,4-thiadiazoles as GLS1 inhibitors” (MEDSHINE DISCOVERY INC., priority 2018, dated 2022).

Where a name gives a salt, the structure may show the parent alone.

In one series the target is T1, GLS1 (Homo sapiens, UniProt O94925).
T1 sequence (O94925 73-669 limits assumed): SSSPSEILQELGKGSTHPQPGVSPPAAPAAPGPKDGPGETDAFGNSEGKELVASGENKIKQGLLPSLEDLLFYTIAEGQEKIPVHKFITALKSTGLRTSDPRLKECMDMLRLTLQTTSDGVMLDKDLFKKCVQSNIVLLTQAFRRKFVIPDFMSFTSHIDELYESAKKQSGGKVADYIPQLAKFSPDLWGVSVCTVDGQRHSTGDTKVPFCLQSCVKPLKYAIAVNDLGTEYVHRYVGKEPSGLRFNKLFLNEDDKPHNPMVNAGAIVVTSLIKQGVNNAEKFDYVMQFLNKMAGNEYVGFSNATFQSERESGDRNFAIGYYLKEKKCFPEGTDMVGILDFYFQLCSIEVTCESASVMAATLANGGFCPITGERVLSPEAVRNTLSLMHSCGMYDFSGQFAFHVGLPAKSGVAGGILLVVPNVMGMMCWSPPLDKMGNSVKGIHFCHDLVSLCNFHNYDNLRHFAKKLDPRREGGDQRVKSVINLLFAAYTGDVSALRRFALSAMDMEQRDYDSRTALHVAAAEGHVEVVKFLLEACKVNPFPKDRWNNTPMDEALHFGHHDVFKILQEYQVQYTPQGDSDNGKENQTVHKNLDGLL
In words: Activity test of compounds in a GLS1 coupling reaction system. The class given is biochemical. The conditions noted are these: enzyme GLS1 2 nM, 4.5 mM L-glutamine, 1 hour preincubation at 23° C. As to the method: Experimental Example 1: Activity Test of Compounds in a GLS1 Coupling Reaction System
The final concentration of each component in the final experimental buffer was 50 mM Tris-HCl pH 8.0, 0.25 mM EDTA, 150 mM K2HPO4, 0.1 mg/mL BSA, 1 mM DTT, and 0.01% o Triton X-100.
the 1× assay buffer was used to prepare “solution A” in the experiment (solution A contained L-glutamine, NAD+ and GLDH), and the final concentration of each component in the final experimental reaction system was 4.5 mM L-glutamine, 2 mM NAD+, and 4 U/mL GLDH; the 1× assay buffer was used to prepare “solution B” in the experiment—2× enzyme solution (solution B contained enzyme GLS1), and the final concentration of GLS1 in the final experimental reaction system was 2 nM.
The experiment plate was the plate prepared by Labcyte's ECHO that contained the gradient concentration of the compound and the corresponding DMSO solution before the experiment:
The experiment plate was taken out, and 20 μL of solution B (an enzyme GLS1 solution) was add to the 2nd to 23rd columns of the experiment plate, and then 20 μL of assay buffer was added to the 1st and 24th columns of the experiment plate, wherein the 1st and 24th columns were used as control groups of the experimental system; the plate was centrifuged at 1000 rpm for 30 seconds; the plate was sealed and incubated at 23° C. for 1 hour; I after 1 hour incubation, 20 μL of solution A was added to columns 1 to 24 of the experiment plate (i.e., addition of samples to the whole plate); the plate was centrifuged at 1000 […] for 30 seconds; the experiment plate was placed on SpectraMax 340PC, and read continuously for 20 minutes in the dynamic mode (the reading interval was set to 1 minute).

The nature of series [1]: Pharmacokinetic evaluation of compounds in mice. The class given is in vivo. The conditions noted are these: mouse, plasma, female C57BL/6 mice; for bioavailability: oral, gavage vs intravenous; for half-life: tail intravenous injection and gavage, read-out: T1/2 (half-life) (converted); for half-life / AUC(0-inf) / Cmax: route not given; for Cmax: read-out: Cmax (peak concentration). As to the method: Experimental Example 2: Pharmacokinetic Evaluation of Compounds
Objective: To test the in vivo pharmacokinetics of the compounds in mice
C57BL/6 mice (female, 7-9 weeks old, Shanghai SLAC)
Experiment operations: The clear solution obtained by dissolving the test compound was administered to female C57BL/6 mice (overnight fasting, 7-9 weeks old) via tail intravenous injection and gavage, respectively. After administration of the test compound or the control compound, blood was collected from the mandibular vein of the intravenous injection group at 0.0833, 0.25, 0.5, 1, 2, 4, 6, 8 and 24 hours, and of the gavage group at 0.0833, 0.25, 0.5, 1, 2, 4, 6, 8 and 24 hours, respectively, and centrifuged to obtain plasma. The LC-MS/MS method was used to determine the blood drug concentration, and the WinNonlin™ Version 6.3 pharmacokinetic software was used to calculate the relevant pharmacokinetic parameters by the non-compartmental model linear logarithmic trapezoidal method.

Series [2] deals with human myeloma RPMI-8226 cell. In words: In vivo pharmacodynamic study, CB-17 SCID nude mouse subcutaneous xenograft model of human myeloma RPMI-8226 cell. Details: species or system mouse xenograft of human cells. As to conditions: for Tumor volume (mm^3) (Day 14): Mean ± SEM, PO, Poma 1 mg/kg QD, CB-839 or compound 2 100 mg/kg (D1-D10) 150 mg/kg (D11-D14) BID. An excerpt:
Experimental Example 3 In Vivo Pharmacodynamic Study of a CB-17 SCID Nude Mouse Subcutaneous Xenograft Model of Human Myeloma RPMI-8226 Cell
Objective: Pomalidomide is used to treat multiple myeloma, and this experiment is used to study and evaluate the in vivo efficacy of the test compound combined with pomalidomide in the CB-17 SCID nude mouse subcutaneous xenograft model of human myeloma RPMI-8226 cell.
Experiment animals: female CB-17 SCID nude mice, 6 to 8 weeks old, with the body weigh of 18 to 22 grams; Supplier: Shanghai Lingchang Biological Technology Co., Ltd.
Human myeloma RPMI 8226 cells were cultured in a monolayer in vitro. The culture conditions were: RPMI 1640 medium (brand: gibco—22400089, batch: 1894220) supplemented with 10% fetal bovine serum, 100 U/mL penicillin and 100 μg/mL streptomycin, at 37° C. and 5% CO2. Conventional digestion treatment with pancreatin-EDTA for passage was carried out twice a week. When the cell confluence reached 80% to 90%, the cells were harvested, counted and inoculated.
0.2 mL (6×10^6 cells) of RPMI 8226 cells (supplemented with matrigel in a volume ratio of 1:1) were subcutaneously inoculated on the right back of each mouse. The grouping and administration were started when the average tumor volume reached 374 mm^3.
The test compound (compound 2) was formulated into a clear solution of 10 mg/mL, and the solvent was a 10 mM citric acid buffer containing 0.2% Tween-80 and 25% hydroxypropyl-β-cyclodextrin, pH=4. CB-839 was formulated into a clear solution of 10 mg/mL, and the solvent was a 10 mM citric acid buffer containing 25% hydroxypropyl-β-cyclodextrin, pH=2.2. Pomalidomide (Poma) was formulated into a clear solution of 0.1 mg/mL, and the solvent was 20% PEG400+80% (20% hydroxypropyl-β-cyclodextrin).
The experimental index was to investigate whether the tumor growth was inhibited, delayed or cured. Tumor diameter was measured twice a week with a vernier caliper. The calculation formula of tumor volume was V=0.5a×b^2, wherein a and b represented the long and short diameters of the tumor, respectively.
The anti-tumor efficacy of the compound was evaluated by TGI (%) or relative tumor proliferation rate T/C (%). TGI (%) reflected the tumor growth inhibition rate. Calculation of TGI (%): TGI (%)=[1−(average tumor volume at the end of administration in a treatment group−average tumor volume at the beginning of administration in this treatment group)/(average tumor volume at the end of administration in the solvent control group-average tumor volume at the beginning of administration in the solvent control group)]×100%.
Relative tumor proliferation rate T/C (%): the calculation formula was as follows: T/C %=TRTV/CRTV×100% (TRTV: mean RTV of the treatment group; CRTV: mean RTV of the negative control group). The relative tumor volume (RTV) was calculated according to the results of the tumor measurement. The calculation formula was RTV=Vt/V0, where V0 was the tumor volume measured at beginning of the grouping and administration (i.e., d0), and Vt was the tumor volume at the time of a certain measurement. TRTV and CRTV were obtained from the data on the same day.
Statistical analysis included mean value and standard error (SEM) of the tumor volume of each group at each time point (see Table 4 for specific data). […] The comparison between two groups was analyzed by T-test, and the comparison between three or more groups was analyzed by one-way ANOVA.
Statistical analysis of synergy: method for calculating Q value (also known as King's formula method) was as follows: Q=TGIA+B/(TGIA+TGIB−TGIA×TGIB). TGIA, TGIB and TGIA+B were the tumor inhibition rates when drug A was used alone, drug B was used alone, and drug A and drug B were used in combination, respectively.
In the experiment, the effect of the test compound on the weight of the animal was investigated. […]

With `CO[C@H](C(=O)Nc1nnc(NC2CCC(c3cc(C)cnn3)CC2)s1)c1cc(OC(F)(F)F)ccc1F` (stereo partly shown) [Compound 5 (hydrochloride salt)], the IC50 against GLS1 is 0.469 µM.

`COc1cccc(C(OC)C(=O)Nc2nnc(N[C@H]3CC[C@@H](c4cccnn4)CC3)s2)c1` (stereo partly shown) [Compound 8 (trifluoroacetate salt)]: the IC50 against GLS1 worked out at 0.577 µM.

In turn, `CO[C@H](C(=O)Nc1nnc(NC2CCC(c3cc4cc[nH]c4nn3)CC2)s1)c1cc(OC(F)(F)F)ccc1F` (stereo partly shown) [Compound 14] registered an IC50 at GLS1 of 0.757 µM.

In the case of `COC(C(=O)Nc1nnc(N[C@H]2CC[C@@H](c3cccnn3)CC2)s1)c1cccc(OC(F)F)c1` (stereo partly shown) [Compound 11 (trifluoroacetate salt)], the IC50 against GLS1 was determined as 0.72 µM.

On GLS1, `COC(C(=O)Nc1nnc(NC2CCC(c3cccnn3)CC2)s1)c1cc(OC(F)(F)F)ccc1F` (single isomer, unassigned) [Compound 3] showed an IC50 of 0.17 µM.

Take `CO[C@H](C(=O)Nc1nnc(NC2CCC(c3cc(C(=O)O)cnn3)CC2)s1)c1cc(OC(F)(F)F)ccc1F` (stereo partly shown) [Compound 6 (hydrochloride salt)]: 1.69 µM corresponded to half-maximal inhibition on GLS1 (IC50).

Turning to `COC(C(=O)Nc1nnc(NC2CCC(c3cccnn3)CC2)s1)c1cc(OC(F)(F)F)ccc1F` (single isomer, unassigned) [Compound 4], the IC50 at GLS1 stood at 4.9 µM.

Molecule `COC(C(=O)Nc1nnc(N[C@H]2CC[C@@H](c3cccnn3)CC2)s1)c1cccc(OC(F)(F)F)c1` (stereo partly shown) [Compound 9 (hydrochloride salt)] showed an IC50 against GLS1 of 0.502 µM. This IC50 is about 9.8-fold lower than that of the molecule before.

Take `COC(C(=O)Nc1nnc(NC2CC=C(c3cccnn3)CC2)s1)c1cc(OC(F)(F)F)ccc1F` (single isomer, unassigned) [Compound 1]: the IC50 on GLS1 was determined as 0.132 µM.

With `CO[C@H](C(=O)Nc1nnc(N[C@H]2CC[C@@H](c3cccnn3)CC2)s1)c1ccccc1` [Compound 10 (hydrochloride salt)], the IC50 on GLS1 was found to be 1.59 µM.

`COC(C(=O)Nc1nnc(NC2CC=C(c3cccnn3)CC2)s1)c1cc(OC(F)(F)F)ccc1F` (single isomer, unassigned) [Compound 2] registered an IC50 against GLS1 of 0.0965 µM. In series [1], the bioavailability was 34.8%, the half-life was 3.93 h, the AUC(0-inf) was 134 µM·h and the Cmax came to 36.8 µM.

`CO[C@H](C(=O)Nc1nnc(NC2CC=C(c3ccc(N)nn3)CC2)s1)c1cc(OC(F)(F)F)ccc1F` (stereo partly shown) [Compound 7 (hydrochloride salt)] showed a half-inhibitory concentration (IC50) against GLS1 of 0.133 µM.

Molecule `COc1cc(C(OC)C(=O)Nc2nnc(N[C@H]3CC[C@@H](c4cccnn4)CC3)s2)ccc1F` (stereo partly shown) [Compound 12 (trifluoroacetate salt)] had an IC50 on GLS1 of 4.71 µM.

As for `O=C(Cc1cccc(OC(F)(F)F)c1)Nc1ccc(CCCCc2nnc(NC(=O)Cc3ccccn3)s2)nn1` [CB-839, reference compound], in series [1], the bioavailability stood at 27.1%, the half-life is 4.69 h, the AUC(0-inf) worked out at 27.7 µM·h and the Cmax worked out at 18.1 µM.

As to `CO[C@H](C(=O)Nc1nnc(NC2CC=C(c3cc4cc[nH]c4nn3)CC2)s1)c1cc(OC(F)(F)F)ccc1F` (stereo partly shown) [Compound 13 (trifluoroacetate salt)], at GLS1, the IC50 was found to be 0.18 µM. This counts as sub-micromolar.

For the molecule `Nc1cccc2c1C(=O)N(C1CCC(=O)NC1=O)C2=O` (stereo not shown) [Poma, Pomalidomide], the “Tumor volume (mm^3) (Day 14)” value in series [2] (Day 14 after administration) is 1542 ± 259 mm^3; in series [2] (Day 14 after administration, listed as pomalidomide), 1,542 mm^3. The “anti-tumor effect compared with the solvent control group” value in series [2] (Day 14 after administration, result in words) is “no significant anti-tumor effect”. Moreover, in series [2] (relative tumor proliferation rate, Day 14, vs solvent control group), the “T/C (%)” value is recorded as 68.8%. The “RTV (Day 14)” value in series [2] (relative tumor volume Vt/V0, Day 14, same dosing as tumor volume) is given as 4.22 ± 0.50. For the same molecule, in series [2] (tumor growth inhibition rate, Day 14, vs solvent control group), the “TGI (%)” value worked out at 34.0%.

Usually IC50 stands for the concentration that gives 50% inhibition. A low value points to higher potency. A word on the bioavailability: it is the share of a dose that reaches the circulation, judged against a reference dose that is usually intravenous. Read a high bioavailability as good availability. For orientation: AUC(0-inf) means the area under the concentration-time curve extrapolated to infinity. Low readings indicate low exposure, high ones high exposure.
